From US10085937B2, “Nasal drug products and methods of their use” (Adapt Pharma Limited, priority 2014, dated 2018)
Where two headings read alike, the source gives them in different places.

Key:
rat = conditions: intravenous; cited from earlier work
newborn rats = conditions: acute subcutaneous; cited from earlier work
mouse = conditions: intravenous; cited from earlier work
[1] = Safety of intranasal naloxone: adverse events, nasal irritation, vital signs, ECG (Study 2)
[2] = for Cmax/D: GLSM, dose adjustment to 0.4 mg; for λz / Frel: mean
clinical = conditions: human, plasma; for AUC(0-t): AUC0-t; for AUC(0-t) / AUC(0-inf) / Cmax: geometric mean (CV %); for AUC(0-inf): AUC0-∞; for Tmax: Table 13
[3] = Safety of intranasal naloxone: nasal irritation, vital signs, ECG, clinical laboratory (Study 1); type: in vivo, human
Procedure: These vital signs and temperature were also measured at screening, clinic intake, one day after each dosing session and at follow-up. […] AEs were recorded from the start of study-drug administration until clinic discharge. […] Clinical laboratory measurements were done prior to the first drug administration and on the day of clinic release.
Statistical Analysis of Adverse Events: AEs were coded using the Medical Dictionary for Regulatory Activities (MedDRA), version 19. Preferred terms and are grouped by system, organ, class (SOC) designation. AEs are presented as a listing including the start date, stop date, severity, relationship, outcome, and duration.

[4] = for Lambda z: harmonic mean; for Tmax: median; for λz: geometric mean (CV %)
[5] = im, 0.4 mg, One Injection 0.4 mg IM
[6] = other: intranasal (IN), 2 mg, One Spray 2% (w/v) IN
[7] = other: intranasal (IN), 4 mg, One Spray 4% (w/v) IN
[8] = other: intranasal, 2 mg, One Spray 2% (w/v) IN
[9] = other: intranasal, 4 mg, One Spray 4% (w/v) IN
[10] = other: intranasal, 4 mg, Two Sprays 2% (w/v) IN
[11] = other: intranasal, 8 mg, Two Sprays 4% (w/v) IN

Compound: C=CCN1CC[C@]23c4c5ccc(O)c4O[C@H]2C(=O)CC[C@@]3(O)[C@H]1C5 [naloxone, 17-allyl-4,5α-epoxy-3,14-dihydroxymorphinan-6-one]
- LD50 (rat): 109 ± 4 mg/kg
- LD50 (95% CL) (newborn rats): 260 (228-296) mg/kg
- LD50 (mouse): 150 ± 5 mg/kg
- adverse events: Dizziness ([1]; 0.4 mg Intramuscular Dose): 1
- adverse events: Headache ([1]; 0.4 mg Intramuscular Dose): 1
- adverse events: Nausea ([1]; 0.4 mg Intramuscular Dose): 1
- Events related to nasal irritation: Edema ([1]; 2 mg (2% w/v, one spray)): 2
- Events related to nasal irritation: Erythema ([1]; 2 mg (2% w/v, one spray)): 4
- Events related to nasal irritation: Other ([1]; 2 mg (2% w/v, one spray)): 1
- Events related to nasal irritation: Total ([1]; 2 mg (2% w/v, one spray)): 7
- adverse events: Nasal Pain ([1]; 2 mg (2% w/v, one spray)): 1
- Events related to nasal irritation: Edema ([1]; 4 mg (2% w/v, two sprays)): 0
- Events related to nasal irritation: Erythema ([1]; 4 mg (2% w/v, two sprays)): 1
- Events related to nasal irritation: Other ([1]; 4 mg (2% w/v, two sprays)): 0
- Events related to nasal irritation: Total ([1]; 4 mg (2% w/v, two sprays)): 1
- Events related to nasal irritation: Edema ([1]; 4 mg (4% w/v, one spray)): 2
- Events related to nasal irritation: Erythema ([1]; 4 mg (4% w/v, one spray)): 1
- Events related to nasal irritation: Other ([1]; 4 mg (4% w/v, one spray)): 0
- Events related to nasal irritation: Total ([1]; 4 mg (4% w/v, one spray)): 3
- Events related to nasal irritation: Edema ([1]; 8 mg (4% w/v, two sprays)): 1
- Events related to nasal irritation: Erythema ([1]; 8 mg (4% w/v, two sprays)): 0
- Events related to nasal irritation: Other ([1]; 8 mg (4% w/v, two sprays)): 0
- Events related to nasal irritation: Total ([1]; 8 mg (4% w/v, two sprays)): 1
- adverse events: Headache ([1]; 8 mg (4% w/v, two sprays)): 1
- relation of nasal irritation to dose ([1]; IN 2 to 8 mg): did not appear to be positively related to the dose
- QTcF prolongation ([1]; Study 2): no evidence of QTcF prolongation
- vital signs, ECG, and clinical laboratory parameters ([1]; after naloxone administration, Study 2): did not reveal any clinically noteworthy changes
- Cmax/D ([2]; 0.4 mg IM): 0.755 ng/mL
- λz ([2]; 0.4 mg IM): 0.593 h⁻¹
- Frel ([2]; 2 mg IN vs IM): 0.571
- Cmax/D ([2]; 2 mg IN): 0.510 ng/mL
- λz ([2]; 2 mg IN): 0.588 h⁻¹
- Frel ([2]; 4 mg IN vs IM): 0.475
- Cmax/D ([2]; 4 mg IN): 0.466 ng/mL
- λz ([2]; 4 mg IN): 8.0 h⁻¹
- AUC(0-t) (clinical; [5]): 1.72 ng·h/mL
- AUC(0-inf) (clinical; [5]): 1.76 ng·h/mL
- Cmax (clinical; [5]): 0.877 ng/mL
- Tmax (clinical; [5]): 22.8 min
- AUC(0-t) (clinical; [6]): 4.51 ng·h/mL
- AUC(0-inf) (clinical; [6]): 4.56 ng·h/mL
- AUC(0-t) (clinical; [7]): 7.87 ng·h/mL
- AUC(0-inf) (clinical; [7]): 7.95 ng·h/mL
- AUC(0-inf) (clinical; other: intranasal (IN), 8 mg, Two Sprays 4% (w/v) IN): 15.5 ng·h/mL
- Cmax (clinical; [8]): 2.92 ng/mL
- Tmax (clinical; [8]): 19.8 min
- Cmax (clinical; [9]): 4.83 ng/mL
- Cmax (clinical; [10]): 6.2 ng/mL
- Tmax (clinical; [9]): 30 min
- Tmax (clinical; [10]): 19.8 min
- Cmax (clinical; [11]): 9.7 ng/mL
- Tmax (clinical; [11]): 19.8 min
- pharyngeal pain ([3]; 2 mg IN dose): One subject experienced mild transient (over 3 min) pharyngeal pain
- nasal irritation (erythema, edema, erosion) in the nasal cavity ([3]; IN 2 and 4 mg to both nostrils): No erythema, edema, erosion, or other sign was observed
- QTcF prolongation ([3]; Study 1): no evidence of QTcF prolongation
- vital signs, ECG, and clinical laboratory parameters ([3]; after naloxone administration, Study 1): did not reveal any clinically noteworthy changes
- Lambda z ([4]; 0.4 mg IM, Female): 0.6140 h⁻¹
- Lambda z ([4]; 0.4 mg IM, Male): 0.5152 h⁻¹
- Tmax ([4]; 0.4 mg IM, Male): 30 min
- Lambda z ([4]; 0.4 mg IM): 0.5534 h⁻¹
- Lambda z ([4]; One 2% (w/v) IN, Female): 0.3978 h⁻¹
- Lambda z ([4]; One 2% (w/v) IN, Male): 0.3492 h⁻¹
- Lambda z ([4]; One 4% (w/v) IN, Female): 0.2946 h⁻¹
- Tmax ([4]; One 4% (w/v) IN, Female): 30 min
- Lambda z ([4]; One 4% (w/v) IN, Male): 0.3386 h⁻¹
- Tmax ([4]; One 4% (w/v) IN, Male): 30 min
- λz ([4]; One Injection 0.4 mg IM): 0.557 (25.9) 1/h
- λz ([4]; One Spray 2% (w/v) IN): 0.382 (34.9) 1/h
- λz ([4]; One Spray 4% (w/v) IN): 0.334 (29.5) 1/h
- Lambda z ([4]; Two 2% (w/v) IN, Female): 0.2796 h⁻¹
- Lambda z ([4]; Two 2% (w/v) IN, Male): 0.3122 h⁻¹
- Lambda z ([4]; Two 4% (w/v) IN, Female): 0.2994 h⁻¹
- Lambda z ([4]; Two 4% (w/v) IN, Male): 0.3407 h⁻¹
- λz ([4]; Two Sprays 2% (w/v) IN): 0.310 (34.5) 1/h
- λz ([4]; Two Sprays 4% (w/v) IN): 0.330 (32.4) 1/h
- Lambda z ([4]; one spray 2 mg 2% (w/v) IN): 0.3685 h⁻¹
- Lambda z ([4]; two sprays 4 mg 2% (w/v) IN): 0.2973 h⁻¹
- Lambda z ([4]; two sprays 8 mg 4% (w/v) IN): 0.3217 h⁻¹
